{
  "source": "patent US20080234299A1",
  "about": "“Quinazolinones” (MERCK PATENT GMBH, priority 2005, published 2008)",
  "tested_on": "cells",
  "experiment": "cell cycle experiments (G2/M)",
  "assay_type": "cell-based",
  "data": [
    {"smiles": "N=C(N)c1ccc(OCCCCCOc2ccc(C(=N)N)cc2)cc1", "note": "[pentamidine]", "values": [
      {"measurement": "effect on cell cycle", "result": "maintain cells in the G2/M cell cycle"}
    ]}
  ]
}
